Reference: paper PMC3433420 (PLoS ONE, 2012)
Values belong to the compound of their own block, whether it stands above or below them. Non-standard residues stand in square brackets, D forms with d. Residues, ends and D or L forms follow the SMILES beside them. No end group written: not given here. pY = N[C@@H](Cc1ccc(OP(=O)(O)O)cc1)C(=O)O

Tests used:
[1] = molecular target: PIK3R2-NC tandem SH2 domains (Homo sapiens, UniProt O00459); assay: FP saturation binding assay
[2] = molecular target: T1, RASA1-N SH2 domain (Homo sapiens, UniProt P20936); assay: FP saturation binding assay
T1 sequence (P20936 181-272 limits assumed): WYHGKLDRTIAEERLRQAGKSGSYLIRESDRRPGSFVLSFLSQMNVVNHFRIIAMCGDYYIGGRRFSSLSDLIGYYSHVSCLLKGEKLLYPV

[3] = tested on: SH2 and PTB domains; assay: Sum of relative binding free energies (ΔΔG) from FP KDs, relative to 20 µM threshold; set-up: species or system human;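 unit kcal/mol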; conditions: summed over the receptor's phosphopeptides
Protocol: In order to further define and classify commonalities and differences among the ErbB family, the relative binding free energy (FE) of each SH2 domain was summed across all phosphosites on each receptor relative to the assay detection threshold of 20 µM according to Equation (3): [drawing 10] (3)

Chain of PIK3R2-NC tandem SH2 domains (O00459 330-716 limits assumed): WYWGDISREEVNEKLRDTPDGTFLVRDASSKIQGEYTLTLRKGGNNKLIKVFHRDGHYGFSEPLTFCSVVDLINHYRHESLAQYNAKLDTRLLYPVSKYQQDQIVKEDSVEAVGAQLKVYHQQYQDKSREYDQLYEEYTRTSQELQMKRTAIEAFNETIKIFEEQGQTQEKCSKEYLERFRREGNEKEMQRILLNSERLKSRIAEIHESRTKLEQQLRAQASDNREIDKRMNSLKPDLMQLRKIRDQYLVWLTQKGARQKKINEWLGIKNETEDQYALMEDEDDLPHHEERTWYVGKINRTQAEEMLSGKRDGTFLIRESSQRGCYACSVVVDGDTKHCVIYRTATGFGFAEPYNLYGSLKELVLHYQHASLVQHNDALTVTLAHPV

Compound: CSCC[C@H](NC(=O)[C@H](Cc1ccc(OP(=O)(O)O)cc1)NC(=O)[C@H](CCC(=O)O)NC(=O)[C@H](Cc1ccc(O)cc1)NC(=O)[C@H](CC(=O)O)NC(=O)[C@@H](N)CCC(=O)O)C(=O)N[C@@H](CC(N)=O)C(=O)N[C@@H](CCCNC(=N)N)C(=O)N[C@@H](CCC(N)=O)C(=O)N[C@@H](CCCNC(=N)N)C(=O)N[C@@H](CC(=O)O)C(=O)NCC(=O)N[C@@H](CC(=O)O)C(=O)O [ErbB3 1262 13-mer] (HELM PEPTIDE1{E.D.Y.E.[O=C([C@H](Cc1ccc(OP(=O)(O)O)cc1)N[*:1])[*:2]].M.N.R.Q.R.D.G.D}$$$$V2.0)
Kd [1]: 18.1 µM
Kd [2]: 9.06 µM

Compound: CC(C)C[C@H](NC(=O)[C@H](CCCNC(=N)N)NC(=O)[C@H](C)NC(=O)[C@H](Cc1ccc(OP(=O)(O)O)cc1)NC(=O)[C@H](Cc1c[nH]cn1)NC(=O)[C@@H](NC(=O)[C@H](Cc1c[nH]cn1)NC(=O)[C@@H]1CCCN1)C(C)C)C(=O)N[C@@H](CCCCN)C(=O)N[C@H](C(=O)N[C@@H](CC(C)C)C(=O)N[C@@H](CCCNC(=N)N)C(=O)N[C@@H](CC(=O)O)C(=O)O)[C@@H](C)O [ErbB3pY1307] (HELM PEPTIDE1{P.H.V.H.[O=C([C@H](Cc1ccc(OP(=O)(O)O)cc1)N[*:1])[*:2]].A.R.L.K.T.L.R.D}$$$$V2.0)
Kd [2]: 1.88 µM

Sum free energies (ΔΔG) ([3]; domain ABL1): 0.48
Sum free energies (ΔΔG) ([3]; domain ABL2): 1.81
Sum free energies (ΔΔG) ([3]; domain BCAR3): 1.81
Sum free energies (ΔΔG) ([3]; domain BLK): 4.66
Sum free energies (ΔΔG) ([3]; domain BLNK): 1.99
Sum free energies (ΔΔG) ([3]; domain BMX): 0.00
Sum free energies (ΔΔG) ([3]; domain BTK): 0.53
Sum free energies (ΔΔG) ([3]; domain CRK): 2.18
Sum free energies (ΔΔG) ([3]; domain CRKL): 0.00
Sum free energies (ΔΔG) ([3]; domain DAPP1): 0.00
Sum free energies (ΔΔG) ([3]; domain FER): 1.84
Sum free energies (ΔΔG) ([3]; domain FES): 2.60
Sum free energies (ΔΔG) ([3]; domain FGR): 2.50
Sum free energies (ΔΔG) ([3]; domain GRAP2): 0.40
Sum free energies (ΔΔG) ([3]; domain GRB2): 0.00
Sum free energies (ΔΔG) ([3]; domain GRB7): 8.74
Sum free energies (ΔΔG) ([3]; domain GRB10): 0.00
Sum free energies (ΔΔG) ([3]; domain GRB14): 0.00
Sum free energies (ΔΔG) ([3]; domain HCK): 5.34
Sum free energies (ΔΔG) ([3]; domain HSH2D): 2.34
Sum free energies (ΔΔG) ([3]; domain INPPL1): 1.51
Sum free energies (ΔΔG) ([3]; domain ITK): 1.44
Sum free energies (ΔΔG) ([3]; domain LCK): 9.34
Sum free energies (ΔΔG) ([3]; domain LCP2): 1.08
Sum free energies (ΔΔG) ([3]; domain LYN): 6.66
Sum free energies (ΔΔG) ([3]; domain MATK): 2.34
Sum free energies (ΔΔG) ([3]; domain NCK1): 1.97
Sum free energies (ΔΔG) ([3]; domain NCK2): 2.78
Sum free energies (ΔΔG) ([3]; domain PIK3R1-C): 15.79
Sum free energies (ΔΔG) ([3]; domain PIK3R1-N): 15.42
Sum free energies (ΔΔG) ([3]; domain PIK3R1-NC): 18.21
Sum free energies (ΔΔG) ([3]; domain PIK3R2-C): 4.66
Sum free energies (ΔΔG) ([3]; domain PIK3R2-N): 15.58
Sum free energies (ΔΔG) ([3]; domain PIK3R2-NC): 17.40
Sum free energies (ΔΔG) ([3]; domain PIK3R3-C): 14.57
Sum free energies (ΔΔG) ([3]; domain PIK3R3-N): 18.45
Sum free energies (ΔΔG) ([3]; domain PIK3R3-NC): 23.70
Sum free energies (ΔΔG) ([3]; domain PLCG1-C): 12.45
Sum free energies (ΔΔG) ([3]; domain PLCG1-N): 2.23
Sum free energies (ΔΔG) ([3]; domain PLCG1-NC): 12.83
Sum free energies (ΔΔG) ([3]; domain PLCG2-N): 0.60
Sum free energies (ΔΔG) ([3]; domain PLCG2-NC): 3.76
Sum free energies (ΔΔG) ([3]; domain PTK6): 7.16
Sum free energies (ΔΔG) ([3]; domain PTPN6-C): 0.00
Sum free energies (ΔΔG) ([3]; domain PTPN6-NC): 0.00
Sum free energies (ΔΔG) ([3]; domain PTPN11-C): 0.00
Sum free energies (ΔΔG) ([3]; domain PTPN11-N): 4.57
Sum free energies (ΔΔG) ([3]; domain PTPN11-NC): 4.70
Sum free energies (ΔΔG) ([3]; domain RASA1-C): 0.68
Sum free energies (ΔΔG) ([3]; domain RASA1-N): 11.64
Sum free energies (ΔΔG) ([3]; domain RASA1-NC): 10.86
Sum free energies (ΔΔG) ([3]; domain SH2B2): 0.53
Sum free energies (ΔΔG) ([3]; domain SH2B3): 5.05
Sum free energies (ΔΔG) ([3]; domain SH2B): 1.60
Sum free energies (ΔΔG) ([3]; domain SH2D1A): 6.64
Sum free energies (ΔΔG) ([3]; domain SH2D1B): 6.98
Sum free energies (ΔΔG) ([3]; domain SH2D2A): 10.39
Sum free energies (ΔΔG) ([3]; domain SH2D3A): 0.00
Sum free energies (ΔΔG) ([3]; domain SH2D3C): 5.13
Sum free energies (ΔΔG) ([3]; domain SH3BP2): 1.31
Sum free energies (ΔΔG) ([3]; domain SHB): 1.08
Sum free energies (ΔΔG) ([3]; domain SHC1-PTB): 8.01
Sum free energies (ΔΔG) ([3]; domain SHC1): 3.41
Sum free energies (ΔΔG) ([3]; domain SHC2-PTB): 4.78
Sum free energies (ΔΔG) ([3]; domain SHC3): 0.95
Sum free energies (ΔΔG) ([3]; domain SHC4): 1.50
Sum free energies (ΔΔG) ([3]; domain SHD): 1.64
Sum free energies (ΔΔG) ([3]; domain SHE): 0.00
Sum free energies (ΔΔG) ([3]; domain SHF): 0.00
Sum free energies (ΔΔG) ([3]; domain SLA2): 4.59
Sum free energies (ΔΔG) ([3]; domain SLA): 0.46
Sum free energies (ΔΔG) ([3]; domain SOCS1): 0.00
Sum free energies (ΔΔG) ([3]; domain SOCS2): 2.96
Sum free energies (ΔΔG) ([3]; domain SOCS3): 4.06
Sum free energies (ΔΔG) ([3]; domain SOCS5): 6.74
Sum free energies (ΔΔG) ([3]; domain SOCS6): 6.61
Sum free energies (ΔΔG) ([3]; domain SRC): 9.70
Sum free energies (ΔΔG) ([3]; domain STAP1): 1.44
Sum free energies (ΔΔG) ([3]; domain SUPT6H): 0.00
Sum free energies (ΔΔG) ([3]; domain SYK-C): 0.00
Sum free energies (ΔΔG) ([3]; domain SYK-N): 0.00
Sum free energies (ΔΔG) ([3]; domain SYK-NC): 2.08
Sum free energies (ΔΔG) ([3]; domain TEC): 0.70
Sum free energies (ΔΔG) ([3]; domain TENC1): 3.35
Sum free energies (ΔΔG) ([3]; domain TNS1): 3.92
Sum free energies (ΔΔG) ([3]; domain TNS3): 4.07
Sum free energies (ΔΔG) ([3]; domain TNS4): 0.67
Sum free energies (ΔΔG) ([3]; domain TXK): 1.88
Sum free energies (ΔΔG) ([3]; domain VAV1): 2.95
Sum free energies (ΔΔG) ([3]; domain VAV2): 5.08
Sum free energies (ΔΔG) ([3]; domain VAV3): 5.15
Sum free energies (ΔΔG) ([3]; domain YES1): 10.32
Sum free energies (ΔΔG) ([3]; domain ZAP70-C): 0.57
Sum free energies (ΔΔG) ([3]; domain ZAP70-N): 0.00
Sum free energies (ΔΔG) ([3]; domain ZAP70-NC): 6.20
Compound: ErbB3 (SEQG[pY]EEMRAFQD)

Kd [2]: 3.69 µM
Compound: FDNLYYWDQDPPD [ErbB2 Y1221 (non-phospho)]
